Measurements reported in US7923465B2, “Cannabinoid receptor ligands, pharmaceutical compositions containing them, and process for their preparation” (priority 2005, dated 2011).
Where two headings read alike, the source gives them in different places.

Experiments:
hCB2 [1] = biological target: T1, hCB2 (Homo sapiens, UniProt P34972); test: Agonism of CB2 receptors expressed in CHO cells, forskolin cAMP assay (Protocol IX.2); type: cell-based; parameters: expressed in transfected cells; host or cells: CHO (h-CB2/CHO, G418-selected)
Description: (§1) IX. Assay for Determining Agonist and Antagonist Activity to CB1 and CB2 Receptors
(§2) 2. Agonism of CB1/CB2 Receptors Expressed in CHO Cells
(§3) h-CB1/CHO or h-CB2/CHO cells were grown in HAM's F12 DMEM medium (Sigma) with 10% FBS (Hyclone), 1% penicillin-streptomycin solution and 400 μg/ml of G418 (Sigma). 5000 cells were seeded per well in a 96 well plate and incubated for 24 hours at 37° C. in 5% CO2. On the day of assay, cells were washed with warm Krebs Buffer containing 0.1% fatty acid free (FAF) BSA (Sigma) and re-suspended in the same buffer containing 1 mM IBMX. Test compound or CP 55,940 as a reference compound (30 nM final concentration for CB1 testing and 10 μM of the same for CB2 testing) diluted in FFB+IBMX+Krebs buffer was added to the cells followed by forskolin addition (10 uM final concentration) and incubated for 30 minutes at room temperature. At the end of incubation, cells were lysed using lysis reagent from the cAMP estimation kit and cAMP was quantitated by chemiluminescence method described in the manufacturer's instructions (DiscoveRX). EC50 values were calculated from dose response curves by nonlinear regression analysis using PRISM software.

hCB2 [2] = biological target: T1, hCB2; test: In vitro binding assay using hCB2-CHO membranes, [3H]-CP-55,940 displacement (Protocol IV); parameters: expressed in transfected cells; host or cells: CHO (hCB2-CHO, generated in-house); settings: 1 h, read-out: % Displacement Protocol IV
How it was run: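 Displacement of [3H]-CP-55,940 (0.75 nM) from membranes of CHO cells expressing human CB2 (25-50 μg) was measured in Tris-BSA buffer pH 7.4 with 5 mM MgCl2, 1 mM EDTA, 0.1% BSA, 1 h at 30 °C. Test compounds were at 300 nM final; nonspecific binding defined with 0.5 μM CP-55,940. Values are % displacement of specific binding.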

hCB1 [3] = biological target: T2, hCB1 (Homo sapiens, UniProt P21554); test: Agonism of CB1 receptors expressed in CHO cells, forskolin cAMP assay (Protocol IX.2); type: cell-based; parameters: expressed in transfected cells; host or cells: CHO (h-CB1/CHO, G418-selected); settings: CHO, at 10 uM, h-CB1/CHO cells, cAMP
Description: as §1, §2
as §3, with “Test compound or CP 55,940 as a reference compound (30 nM final concentration for CB1 testing and 10 μM of the same for CB2 testing) diluted in FFB+IBMX+Krebs buffer was added to the cells followed by forskolin addition (10 uM final concentration) and incubated for 30 minutes at room temperature.” left out

hCB2 [4] = biological target: T1, hCB2; test: Antagonism of CB2 receptors expressed in CHO cells, cAMP assay against CP 55,940 (Protocol IX.1); type: cell-based; parameters: expressed in transfected cells; host or cells: CHO (h-CB2/CHO, G418-selected); settings: CHO, h-CB2/CHO cells, vs 10 nM CP 55,940
Description: as §1
(§4) 1. Antagonism of CB1/CB2 Receptors Expressed in CHO Cells.
h-CB1/CHO or h-CB2/CHO cells were grown in HAM's F12 DMEM medium (Sigma) with 10% FBS (Hyclone), 1% penicillin-streptomycin solution and 400 μg/ml of G418 (Sigma). 5000 cells were seeded per well in a 96 well plate and incubated for 24 hours at 37° C. in 5% CO2. On the day of assay, cells were washed with warm Krebs buffer containing 0.1% fatty acid free (FAF) BSA (Sigma) and re-suspended in the same buffer containing 1 mM IBMX. Test antagonist or reference compound (AM 251 (1-(2,4-dichlorophenyl)-5-(4-iodophenyl)-4-methyl-N-(1-piperidyl)pyrazole-3-carboxamide) for CB1 and SR144528 for CB2) diluted in FAFBSA+IBMX+Krebs buffer was added to the cells and incubated for 10 minutes at room temperature. CP 55,940 (30 nM final concentration for CB1 testing and 10 nM of the same for CB2 testing) was added to cells followed by forskolin (10 μM final concentration) and incubated for 30 minutes at room temperature. At the end of incubation, cells were lysed using lysis reagent from the cAMP estimation kit and cAMP was quantitated by the chemiluminescence method described in the manufacturer's instructions (DiscoveRX). EC50 values were calculated from dose response curves by nonlinear regression analysis using PRISM software.

CB1 [5] = biological target: T3, CB1 (Rattus norvegicus, UniProt P20272); test: Rat CB1 receptor binding using brain membrane, [3H]SR141716A displacement (Protocol I); parameters: CB1 receptor present in a rat brain membrane preparation; from tissue; host or cells: rat brain membrane; inhibition: dose or concentration left out as unconfirmed; settings: 1 h; rat brain membrane, [3H]SR141716A displacement; read-out: % Displacement Protocol I
hCB1 [6] = biological target: T2, hCB1; test: Antagonism of CB1 receptors expressed in CHO cells, cAMP assay against CP 55,940 (Protocol IX.1); type: cell-based; parameters: expressed in transfected cells; host or cells: CHO (h-CB1/CHO, G418-selected); settings: at 10 uM, h-CB1/CHO cells, cAMP, vs 30 nM CP 55,940; read-out: hCB1 Antagonism
Description: as §1, §4
h-CB1/CHO or h-CB2/CHO cells were grown in HAM's F12 DMEM medium (Sigma) with 10% FBS (Hyclone), 1% penicillin-streptomycin solution and 400 μg/ml of G418 (Sigma). 5000 cells were seeded per well in a 96 well plate and incubated for 24 hours at 37° C. in 5% CO2. On the day of assay, cells were washed with warm Krebs buffer containing 0.1% fatty acid free (FAF) BSA (Sigma) and re-suspended in the same buffer containing 1 mM IBMX. […] At the end of incubation, cells were lysed using lysis reagent from the cAMP estimation kit and cAMP was quantitated by the chemiluminescence method described in the manufacturer's instructions (DiscoveRX). EC50 values were calculated from dose response curves by nonlinear regression analysis using PRISM software.

CB1 [7] = biological target: T3, CB1; test: GTPγS binding assay, CB1 functional assay in rat cerebellar membrane (Protocol VIII); type: biochemical; parameters: 10 μg rat cerebellum membrane; from tissue; host or cells: rat cerebellum membrane, prepared in-house
How it was run: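 Rat cerebellar membranes (10 μg) incubated 1 h at 30 °C with 0.2 nM [35S]GTPγS, 50 μM GDP, and compound at 1 μM or 300 nM, alone or with 1 μM WIN 55,212-2, in Tris/MgCl2/EGTA/NaCl pH 7.4. Filter-bound radioactivity counted; percent stimulation calculated against basal specific binding (nonspecific defined by 10 μM GTPγS).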

[8] = hCB2 Agonism IC50, h-CB2/CHO cells, cAMP
[9] = hCB2-CHO membranes, [3H]-CP-55,940 displacement

T2 sequence (P21554 whole entry): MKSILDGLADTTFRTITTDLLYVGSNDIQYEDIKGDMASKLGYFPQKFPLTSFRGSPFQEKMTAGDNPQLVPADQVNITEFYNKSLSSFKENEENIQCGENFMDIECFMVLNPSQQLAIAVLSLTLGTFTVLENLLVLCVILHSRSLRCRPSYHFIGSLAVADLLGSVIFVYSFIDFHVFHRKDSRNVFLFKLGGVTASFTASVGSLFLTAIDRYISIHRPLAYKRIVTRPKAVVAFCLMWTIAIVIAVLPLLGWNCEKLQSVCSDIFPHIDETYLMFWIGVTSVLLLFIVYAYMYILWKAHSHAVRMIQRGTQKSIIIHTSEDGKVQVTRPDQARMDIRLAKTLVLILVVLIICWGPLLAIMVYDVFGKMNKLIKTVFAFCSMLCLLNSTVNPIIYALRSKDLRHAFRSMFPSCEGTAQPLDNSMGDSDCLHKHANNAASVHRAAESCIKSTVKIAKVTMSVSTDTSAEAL
T3 sequence (P20272 whole entry): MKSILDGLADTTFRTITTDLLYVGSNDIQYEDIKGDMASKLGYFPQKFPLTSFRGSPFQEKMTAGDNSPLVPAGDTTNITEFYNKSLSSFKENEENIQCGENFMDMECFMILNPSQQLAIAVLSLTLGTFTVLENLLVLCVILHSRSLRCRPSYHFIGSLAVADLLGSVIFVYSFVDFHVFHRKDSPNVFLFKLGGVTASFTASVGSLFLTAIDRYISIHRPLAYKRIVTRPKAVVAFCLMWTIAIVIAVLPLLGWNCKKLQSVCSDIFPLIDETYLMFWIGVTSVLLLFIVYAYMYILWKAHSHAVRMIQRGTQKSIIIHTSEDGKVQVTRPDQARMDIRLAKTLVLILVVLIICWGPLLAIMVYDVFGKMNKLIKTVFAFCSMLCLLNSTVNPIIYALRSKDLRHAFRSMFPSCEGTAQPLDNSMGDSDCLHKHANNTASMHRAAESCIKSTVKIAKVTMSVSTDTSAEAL
T1 sequence (P34972 whole entry): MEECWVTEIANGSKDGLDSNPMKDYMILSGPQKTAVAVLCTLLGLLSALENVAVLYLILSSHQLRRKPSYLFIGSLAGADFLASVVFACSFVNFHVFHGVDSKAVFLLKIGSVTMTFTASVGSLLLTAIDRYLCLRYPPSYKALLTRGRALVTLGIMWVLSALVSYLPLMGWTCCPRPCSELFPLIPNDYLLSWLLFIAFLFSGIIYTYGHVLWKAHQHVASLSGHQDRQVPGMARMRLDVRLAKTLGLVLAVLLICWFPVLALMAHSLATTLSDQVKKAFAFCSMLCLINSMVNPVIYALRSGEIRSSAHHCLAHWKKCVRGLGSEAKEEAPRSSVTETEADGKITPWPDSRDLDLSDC

| Compound | melting point | activation at 10 µM (hCB1 [3]) | inhibition at 10 µM (hCB2 [4]) | IC50 (hCB2 [1]; [8]) | inhibition at 0.3 µM (hCB2 [2]; [9]) | inhibition (CB1 [5]) | inhibition at 10 µM (hCB1 [6]) | other results |
| --- | --- | --- | --- | --- | --- | --- | --- | --- |
| O=C(NC(CO)c1ccccc1)c1nn(-c2ccc(F)cc2F)c2c1C1CCC2C1 [Example 302, N5-[(1S)-2-Hydro-1-phenylethyl]-3-(2,4-difluorophenyl)-3,4-diazatricyclo[5.2.1.0.^2,6]deca-2(6),4-diene-5-carboxamide] | 91 °C | 19% | 0% |  |  |  |  | IC50 (hCB2 [1]; h-CB2/CHO cells, cAMP, read-out: hCB2 Agonism IC50): 9.75 nM; inhibition at 0.3 µM (hCB2 [2]): 71.8% |
| O=C(NNc1cccc(F)c1)c1nn(-c2ccc(Cl)cc2Cl)c2c1C1CCC2C1 (stereo not drawn) [Example 266, N(3)-[(3-Fluorophenyl)amino]-1-(2,4-dichlorophenyl)-4,5,6,7-tetrahydro-1H-4,7-methano-indazole-3-carboxamide] | 190 °C | 12.1% | 27.7% | 14 nM | 62% | 34.5% |  |  |
| O=C(NNc1ccc(F)cc1F)c1nn(-c2ccc(Cl)cc2Cl)c2c1C1CCC2C1 (stereo not drawn) [Example 265, N(3)-[(2,4-Difluorophenyl)amino]-1-(2,4-dichlorophenyl)-4,5,6,7-tetrahydro-1H-4,7-methano-indazole-3-carboxamide] | 157 to 160 °C |  | 27.2% | 23.1 nM | 70.2% | 31.6% |  |  |
| O=C(NCc1ccccc1Cl)c1nn(-c2ccc(F)cc2F)c2c1C1CC3CC(C1)CC2C3 [Example 149, N(7)-(2-Chlorobenzyl)-5-(2,4-difluorophenyl)-5,6-diazatetracyclo[7.3.1.1^3,11.0^4,8]tetradeca-4(8),6-diene-7-carboxamide] | 136 °C | 79.9% |  |  |  |  | 16% |  |
| O=C(NCc1ccc(Cl)cc1Cl)c1nn(-c2ccc(Cl)cc2)c2c1C1CCC2C1 (stereo not drawn) [Example 223, N(3)-(2,4-Dichlorobenzyl)-1-(4-chlorophenyl)-4,5,6,7-tetrahydro-1H-4,7-methano-indazole-3-carboxamide] | 108 to 111 °C |  | 24.4% | 1.49 nM | 59.5% | 52.1% | 0% |  |
| O=C(NNc1ncccc1Cl)c1nn(-c2ccc(Cl)cc2)c2c1C1CC3CC(C1)CC2C3 [Example 134, N(7)-(3-Chloro-2-pyridylamino)-5-(4-chlorophenyl)-5,6-diazatetracyclo[7.3.1.1^3,11.0^4,8]tetradeca-4(8),6-diene-7-carboxamide] | 200 to 203 °C | 75.6% |  |  |  | 89.6% | 17.5% | activation at 0.3 µM (CB1 [7]; 1 h, GTPγS binding over basal, rat cerebellar membrane, tested at 300 nM, read-out: Per Se % Stimulation): -6%; inhibition at 0.3 µM (CB1 [7]; GTPγS binding, tested at 300 nM in presence of 1 μM WIN 55,212-2, read-out: % Inhibition of WIN-55212-2 induced stimulation): 58.1% |
| O=C(NC1CCCCC1)c1nn(-c2ccccc2)c2c1C1CCC2C1 (stereo not drawn) [Example 202, N(3)-Cyclohexyl-1-phenyl-4,5,6,7-tetrahydro-1H-4,7-methano-indazole-3-carboxamide] | 107 °C | 0% |  |  | 70.1% | 28.2% | 0% | hCB2 Agonism (hCB2 [1]; bare number, no unit or concentration given): 16.79 |
| O=C(NCC1CCCCC1)c1nn(-c2ccc(Cl)cc2Cl)c2c1C1CCC2C1 (stereo not drawn) [Example 238, N(3)-Cyclohexylmethyl-1-(2,4-dichlorophenyl)-4,5,6,7-tetrahydro-1H-4,7-methano-indazole-3-carboxamide] | 111 to 113 °C |  | 24.5% |  |  | 73.9% |  | hCB2 Agonism (hCB2 [1]; at 10 uM, h-CB2/CHO cells, cAMP): 55.05% at; activation at 1 µM (CB1 [7]; 1 h, GTPγS binding over basal, rat cerebellar membrane, tested at 1 uM, read-out: Per Se % Stimulation): 0.4%; inhibition at 1 µM (CB1 [7]; GTPγS binding, tested at 1 uM in presence of 1 μM WIN 55,212-2, read-out: % Inhibition of WIN-55212-2 induced stimulation): 59.1% |
| O=C(NC1CCCCC1)c1nn(-c2ccccc2Cl)c2c1C1CCC2C1 (stereo not drawn) [Example 206, N(3)-Cyclohexyl-1-(2-chlorophenyl)-4,5,6,7-tetrahydro-1H-4,7-methano-indazole-3-carboxamide] | 171 °C |  | 16% | 10.5 nM | 71.9% | 27.4% |  |  |
| O=C(NNc1ccc(Cl)cc1Cl)c1nn(-c2ccc(F)cc2F)c2c1C1CC3CC(C1)CC2C3 [Example 150, N(7)-(2,4-Dichlorophenylamino)-5-(2,4-difluorophenyl)-5,6-diazatetracyclo[7.3.1.1^3,11.0^4,8]tetradeca-4(8),6-diene-7-carboxamide] | 162 °C | 61.1% |  |  |  |  | 42.9% |  |
